# Laboratory results reported in patent US10363239B2, “Method for inhibiting growth of cancer cells” (Pain Therapeutics, Inc., priority 2013, dated 2019).
# Like-named read-outs stand apart in the source and are kept apart here.
# Experiments:
# mu opiate receptor (MOR) = assay: MOR agonist activity using [35S]GTPγS binding assay in striatal membranes; assay type: biochemical; conditions: for MOR agonist activity ([35S]GTPγS binding), FLNA-Binding Compound as Agonist 1 μM + BFNA: 1 μM compound + 1 μM β-funaltrexamine
# Summary of the method: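 Striatal membranes (200 μg) were preincubated 5 min at 30 °C in HEPES pH 7.5 with 100 mM NaCl, 1 mM MgCl2 and 0.5 nM [35S]GTPγS, then 5 min more with 0.1–10 μM compound. Gαo was immunoprecipitated and bound radioactivity counted by scintillation.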
# [1] = target: FLNA pentapeptide of SEQ ID NO: 1 (Bn-VAKGL) (Homo sapiens, UniProt P21333); assay: FITC-NLX-based FLNA screening assay (inhibition of FITC-naloxone binding to Bn-VAKGL on streptavidin plates); conditions: 10 nM FITC-NLX
# [2] = read-out: Percent Binding Inhibition, FLNA-binding compound 0.01 μM
# [3] = read-out: Percent Binding Inhibition, FLNA-binding compound 0.1 μM
# [4] = read-out: Percent Binding Inhibition, FLNA-binding compound 1 μM
# [5] = Series C-1, 0.1 μM compound, relative to DAMGO
# [6] = Series C-1, 0.1 μM compound, [35S]GTPγS binding to Gαo, striatal membranes
# [7] = Series C-1, 1 μM compound + 1 μM β-FNA
# [8] = Series C-1, 1 μM compound + β-FNA, relative to DAMGO + BFNA
# [9] = Series C-1, 1 μM compound, relative to DAMGO
# [10] = Series C-1, 1 μM compound, [35S]GTPγS binding to Gαo, striatal membranes
# [11] = FLNA-binding compound 0.01 μM, read-out: Percent Binding Inhibition
# [12] = FLNA-binding compound 0.1 μM, read-out: Percent Binding Inhibition
# [13] = FLNA-binding compound 1 μM, read-out: Percent Binding Inhibition
# [14] = 0.1 μM compound relative to DAMGO
# [15] = 1 μM compound + BFNA relative to DAMGO + BFNA
# [16] = 1 μM compound relative to DAMGO
# [17] = Series B, 0.1 μM compound, relative to DAMGO
# [18] = Series B, 0.1 μM compound, [35S]GTPγS binding to Gαo, striatal membranes
# [19] = Series B, 1 μM compound + 1 μM β-FNA
# [20] = Series B, 1 μM compound + β-FNA, relative to DAMGO + BFNA
# [21] = Series B, 1 μM compound, relative to DAMGO
# [22] = Series B, 1 μM compound, [35S]GTPγS binding to Gαo, striatal membranes
SMILES,"inhibition at 0.01 µM [1, 2] [%]","inhibition at 0.1 µM [1, 3] [%]","inhibition at 1 µM [1, 4] [%]",% DAMGO (0.1 μM) (mu opiate receptor (MOR); [5]) [%],Concentration of FLNA-Binding Compound as Agonist 0.1 μM (mu opiate receptor (MOR); [6]) [%],Concentration of FLNA-Binding Compound as Agonist 1 μM + BFNA (mu opiate receptor (MOR); [7]) [%],% DAMGO + BFNA (mu opiate receptor (MOR); [8]) [%],% DAMGO (1 μM) (mu opiate receptor (MOR); [9]) [%],Concentration of FLNA-Binding Compound as Agonist 1 μM (mu opiate receptor (MOR); [10]) [%],"inhibition at 0.01 µM [1, 11] [%]","inhibition at 0.1 µM [1, 12] [%]","inhibition at 1 µM [1, 13] [%]","MOR agonist activity ([35S]GTPγS binding), FLNA-Binding Compound as Agonist 0.1 μM (mu opiate receptor (MOR); 0.1 μM compound) [%]",% DAMGO (0.1 μM) (mu opiate receptor (MOR); [14]) [%],"MOR agonist activity ([35S]GTPγS binding), FLNA-Binding Compound as Agonist 1 μM (mu opiate receptor (MOR); 1 μM compound) [%]","MOR agonist activity ([35S]GTPγS binding), FLNA-Binding Compound as Agonist 1 μM + BFNA (mu opiate receptor (MOR)) [%]",% DAMGO + BFNA (mu opiate receptor (MOR); [15]) [%],% DAMGO (1 μM) (mu opiate receptor (MOR); [16]) [%],also measured
CS(=O)(=O)c1ccc(S(=O)(=O)N2CCOC23CCNCC3)cc1 [Compound C0116M],53.9,60,62.9,,,,,,,,,,,,,,,,"% DAMGO (0.1 μM) (mu opiate receptor (MOR); Series C-2, 0.1 μM compound, relative to DAMGO): 136.6%; MOR agonist activity, percent [35S]GTPγS binding at the stated compound concentration (mu opiate receptor (MOR); Series C-2, 0.1 μM compound, [35S]GTPγS binding to Gαo, striatal membranes): 258.4%; MOR agonist activity, percent [35S]GTPγS binding at the stated compound concentration (mu opiate receptor (MOR); Series C-2, 1 μM compound + 1 μM β-FNA): 152.0%; % DAMGO + BFNA (mu opiate receptor (MOR); Series C-2, 1 μM compound + β-FNA, relative to DAMGO + BFNA): 313.4%; % DAMGO (1 μM) (mu opiate receptor (MOR); Series C-2, 1 μM compound, relative to DAMGO): 122.0%; MOR agonist activity, percent [35S]GTPγS binding at the stated compound concentration (mu opiate receptor (MOR); Series C-2, 1 μM compound, [35S]GTPγS binding to Gαo, striatal membranes): 302.8%"
COc1ccc(S(=O)(=O)N2CCC3(OCCN3S(=O)(=O)c3ccc(OC)cc3)C3CCCCC32)cc1 (stereo not drawn) [Compound C0144M],,,,108.3,186.3,125.9,137.9,90.8,295.9,46.4,50.7,55.7,,,,,,,
CC1CCC(C(C)C)C(OCC(O)CN2CCCCC2)C1 (stereo not drawn) [Compound A0005],34.2,38.2,43.8,,,,,,,,,,179.7,105.0,239.2,23.5,45.1,89.6,
OC(COc1cccc(F)c1)CN1CCc2ccccc2C1 (stereo not drawn) [Compound A0055],,,,,,,,,,28.1,32.4,41.8,89.8,53.2,195.2,33.5,102.4,78.4,
COc1ccc(CCC(=O)CC2c3c(cc4c(c3OC)OCO4)CC[N+]2(C)C)cc1 (stereo not drawn) [Compound B0016],27.1,33.7,41.9,,,,,,,,,,,,,,,,"% DAMGO (0.1 μM) (mu opiate receptor (MOR); [17]): 99.2%; MOR agonist activity, percent [35S]GTPγS binding at the stated compound concentration (mu opiate receptor (MOR); [18]): 167.7%; MOR agonist activity, percent [35S]GTPγS binding at the stated compound concentration (mu opiate receptor (MOR); [19]): 72.2%; % DAMGO + BFNA (mu opiate receptor (MOR); [20]): 109.4%; % DAMGO (1 μM) (mu opiate receptor (MOR); [21]): 79.9%; MOR agonist activity, percent [35S]GTPγS binding at the stated compound concentration (mu opiate receptor (MOR); [22]): 213.6%"
CC1CCC(C(C)C)C(OCC(O)CN2CCSCC2)C1 (stereo not drawn) [Compound A0003],21.3,31.6,37.4,,,,,,,,,,176.8,118.3,276.0,17.1,64.5,119.9,
COc1c2c(cc3c1C(CC(=O)CCc1ccc(O)cc1)[N+](C)(C)CC3)OCO2 (stereo not drawn) [Compound B0028],38.2,42.8,49.1,,,,,,,,,,,,,,,,"% DAMGO (0.1 μM) (mu opiate receptor (MOR); [17]): 103.5%; MOR agonist activity, percent [35S]GTPγS binding at the stated compound concentration (mu opiate receptor (MOR); [18]): 199.1%; MOR agonist activity, percent [35S]GTPγS binding at the stated compound concentration (mu opiate receptor (MOR); [19]): 55.0%; % DAMGO + BFNA (mu opiate receptor (MOR); [20]): 125.3%; % DAMGO (1 μM) (mu opiate receptor (MOR); [21]): 131.0%; MOR agonist activity, percent [35S]GTPγS binding at the stated compound concentration (mu opiate receptor (MOR); [22]): 357.7%"
O=S(=O)(c1ccc(Br)c(C(F)(F)F)c1)N1CCC2(CC1)OCCN2S(=O)(=O)c1ccc(Br)c(C(F)(F)F)c1 [Compound C0077],45.7,47.7,51,109.5,192.7,136.7,621.4,104.9,265.4,,,,,,,,,,
N#Cc1ccc(S(=O)(=O)N2CCC3(CC2)OCCN3S(=O)(=O)c2ccc(C#N)cc2)cc1 [Compound C0008],,,,41.4,71.2,2.8,4.4,72.9,201.6,42.2,52.3,54.4,,,,,,,
